# pEC50: −log10 of the molar value. Counter-ions that a name gives are not always drawn.
# Molecular target: T1, 5-HT2C receptor (Homo sapiens, UniProt P28335)
# T1 construct: host or cells: U2OS
# Assay: Human 5-HT2C functional assay (beta-arrestin2 recruitment, U2OS_HTR2C_β-Arrestin cells)
# Assay type: cell-based
# Details: for pEC50: beta-arrestin2 recruitment, U2OS_HTR2C_β-Arrestin cells, 1.5 h incubation, read-out: EC50 5-HT2C (potency in functional assay); for Emax: relative efficacy vs response to 10 μM 5-HT or maximal 5-HT effect (100%)
# Procedure: The functional activity of compounds of formula I was assayed by incubation with U2OS_HTR2C_β-Arrestin cells (DiscoverX, 93-0289C3) to induce beta-arrestin2 recruitment to the 5-HT2C receptor. The agonist-induced recruitment and proximity of the receptor and beta-arrestin2 leads to complementation and formation of active β-galactosidase. The enzyme complementation results in enzyme activity, which is measured following the termination of the agonist incubation using DiscoveRx's detection reagent, which contains a chemiluminescent substrate which produces a high intensity signal. Cells were plated and a medium-change to a 1% serum containing medium was performed 24h later. The next day, test compounds were added and incubated for 1.5 h before addition of detection reagent.
# The response produced was measured and compared with the response produced by 10 [mu]M 5-HT or the maximal effect induced by 5-HT (defined as 100%) to which it was expressed as a percentage response (relative efficacy). Dose response curves were constructed using Graphpad Prism (Graph Software Inc.) or using in house adapted software using a 4 parameter dose response model with variable slope (fit=(Bottom+(Top-Bottom)/(1+10^∧((Log EC50−x)*HillSlope))res=(y-fit)). Results are compiled in the table below.
# T1 sequence (P28335 33-458): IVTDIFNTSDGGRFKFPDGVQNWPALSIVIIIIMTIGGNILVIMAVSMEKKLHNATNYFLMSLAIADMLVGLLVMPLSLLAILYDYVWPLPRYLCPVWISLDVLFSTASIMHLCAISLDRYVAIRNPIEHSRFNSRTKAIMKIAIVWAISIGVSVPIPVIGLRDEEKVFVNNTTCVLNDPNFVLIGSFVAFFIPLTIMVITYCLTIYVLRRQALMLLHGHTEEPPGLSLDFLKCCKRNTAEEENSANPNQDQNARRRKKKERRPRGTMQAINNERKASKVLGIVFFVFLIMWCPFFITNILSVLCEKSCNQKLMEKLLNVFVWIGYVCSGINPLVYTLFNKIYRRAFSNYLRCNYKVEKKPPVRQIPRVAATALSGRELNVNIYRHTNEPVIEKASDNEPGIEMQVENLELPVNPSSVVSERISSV
# T1 sequence (P32121 whole entry partner): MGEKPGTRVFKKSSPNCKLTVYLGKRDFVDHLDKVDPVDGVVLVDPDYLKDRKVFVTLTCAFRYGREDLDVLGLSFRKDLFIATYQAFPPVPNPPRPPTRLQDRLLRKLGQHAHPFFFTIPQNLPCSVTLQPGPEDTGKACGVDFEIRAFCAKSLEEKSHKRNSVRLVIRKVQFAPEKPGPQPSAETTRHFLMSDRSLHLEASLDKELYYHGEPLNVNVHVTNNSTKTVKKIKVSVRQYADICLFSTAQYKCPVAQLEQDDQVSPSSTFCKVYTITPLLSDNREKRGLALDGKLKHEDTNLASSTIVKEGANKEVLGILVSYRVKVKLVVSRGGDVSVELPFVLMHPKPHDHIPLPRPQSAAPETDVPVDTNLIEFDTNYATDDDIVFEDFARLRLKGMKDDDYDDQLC
Structure (SMILES),pEC50,Emax [%]
"COc1nc(NCC2CCC(C(F)(F)F)CC2)c(F)cc1CNC(=O)[C@@H]1CCCN1 (single isomer, unassigned) [Example 149]",6.70 to 7.70,
"COc1nc(OCc2cc(F)cc(F)c2)c(F)cc1CNC(=O)[C@@H]1CCCN1 [Example 5, (S)—N-((6-((3,5-Difluorobenzyl)oxy)-5-fluoro-2-methoxypyridin-3-yl)methyl)pyrrolidine-2-carboxamide Hydrochloride]",> 7.70,> 70
"COc1nc(OC[C@@H]2CCC(F)(F)C2)c(F)cc1CNC(=O)[C@@H]1CCCN1C [Example 16, (2S)—N-[[6-[[(1R)-3,3-Difluorocyclopentyl]methoxy]-5-fluoro-2-methoxy-3-pyridyl]methyl]-1-methyl-pyrrolidine-2-carboxamide]",> 7.70,> 70
"COc1nc(OC2CCC(F)(F)CC2)c(F)cc1CNC(=O)[C@@H]1C=CCN1C [Example 21, (2S)—N-[[6-(4,4-Difluorocyclohexoxy)-5-fluoro-2-methoxy-3-pyridyl]methyl]-1-methyl-2,5-dihydropyrrole-2-carboxamide]",6.70 to 7.70,> 70
"COc1nc(OCC23CC(C2)C3)c(F)cc1CNC(=O)[C@@H]1CCCN1 [Example 22, (S)—N-((6-(Bicyclo[1.1.1]pentan-1-ylmethoxy)-5-fluoro-2-methoxypyridin-3-yl)methyl)pyrrolidine-2-carboxamide Hydrochloride]",> 7.70,> 70
"COc1nc(OC2CCC(F)(F)CC2)c(F)cc1CNC(=O)[C@@H]1CCN1C [Example 39, (2S)—N-[[6-(4,4-Difluorocyclohexoxy)-5-fluoro-2-methoxy-3-pyridyl]methyl]-1-methyl-azetidine-2-carboxamide; Succinic Acid]",6.70 to 7.70,50 to 70
"COc1nc(OCC2CC2(F)F)c(F)cc1CNC(=O)[C@@H]1CCCN1 (stereo partly drawn) [Example 41, (2S)—N-[[6-[(2,2-Difluorocyclopropyl)methoxy]-5-fluoro-2-methoxy-3-pyridyl]methyl]pyrrolidine-2-carboxamide; Succinic Acid]",> 7.70,> 70
"COc1nc(OCCC(F)(F)C(F)(F)F)c(F)cc1CNC(=O)[C@@H]1CCCN1 [Example 45, (2S)—N-[[5-Fluoro-2-methoxy-6-(3,3,4,4,4-pentafluorobutoxy)-3-pyridyl]methyl]-pyrrolidine-2-carboxamide; Succinic Acid]",> 7.70,> 70
"COc1nc(OC(C)C(F)(F)C(F)(F)F)c(F)cc1CNC(=O)[C@@H]1CCCN1 (stereo partly drawn) [Example 50, (2S)—N-[[5-Fluoro-2-methoxy-6-(2,2,3,3,3-pentafluoro-1-methyl-propoxy)-3-pyridyl]methyl]pyrrolidine-2-carboxamide; Succinic Acid]",> 7.70,> 70
"COc1nc(OC2CCCCC2C(F)(F)F)c(F)cc1CNC(=O)[C@@H]1CCCN1 (stereo partly drawn) [Example 57, (2S)—N-[[5-Fluoro-2-methoxy-6-[2-(trifluoromethyl)cyclohexoxy]-3-pyridyl]methyl]pyrrolidine-2-carboxamide; 2,2,2-trifluoroacetic Acid]",> 7.70,> 70
"COc1nc(OC2CC3C(C2)C3(F)F)c(F)cc1CNC(=O)C1CCCN1C (stereo not drawn) [Example 64, N-[[6-[(6,6-Difluoro-3-bicyclo[3.1.0]hexanyl)oxy]-5-fluoro-2-methoxy-3-pyridyl]methyl]-1-methyl-pyrrolidine-2-carboxamide Dihydrochloride]",> 7.70,> 70
"COc1nc(OC2CCC(OC(F)F)CC2)c(F)cc1CNC(=O)[C@@H]1CCCN1 (stereo partly drawn) [Example 67, (2S)—N-[[6-[4-(Difluoromethoxy)cyclohexoxy]-5-fluoro-2-methoxy-3-pyridyl]-methyl]pyrrolidine-2-carboxamide]",> 7.70,> 70
"COc1nc(OCC(F)(C(F)(F)F)C(F)(F)F)c(F)cc1CNC(=O)[C@@H]1CCCN1 [Example 69, (S)—N-((5-Fluoro-2-methoxy-6-(2,3,3,3-tetrafluoro-2-(trifluoromethyl)propoxy)pyridin-3-yl)methyl)pyrrolidine-2-carboxamide Hydrochloride]",> 7.70,> 70
"COc1nc(OCC23CC4CC(CC(C4)C2)C3)c(F)cc1CNC(=O)[C@@H]1CCCN1 [Example 70, (2S)—N-[[6-(1-Adamantylmethoxy)-5-fluoro-2-methoxy-3-pyridyl]methyl]-pyrrolidine-2-carboxamide; 2,2,2-trifluoroacetic Acid]",> 7.70,> 70
"COc1nc(O[C@H]2CC[C@H](C(F)(F)F)CC2)c(F)cc1CNC(=O)[C@H]1NC[C@@H]1C [Example 80, (2S,3 S)—N-[[5-Fluoro-2-methoxy-6-[4-(trifluoromethyl)cyclohexoxy]-3-pyridyl]methyl]-3-methyl-azetidine-2-carboxamide; Fumaric Acid]",6.70 to 7.70,> 70
"COc1nc(OC2CCC(C(F)(F)F)CC2)c(F)cc1CNC(=O)[C@H]1NC[C@@H]2C[C@@H]21 (stereo partly drawn) [Example 85, (1R,4S,5S)—N-[[5-Fluoro-2-methoxy-6-[4-(trifluoromethyl)cyclohexoxy]-3-pyridyl]methyl]-3-azabicyclo[3.1.0]hexane-4-carboxamide Hydrochloride]",> 7.70,30 to 50
"COc1nc(O[C@H]2C[C@H](C(F)(F)F)C2)c(F)cc1CN(C)C(=O)[C@@H]1CCCN1 [Example 120, (2S)—N-[[5-Fluoro-2-methoxy-6-[trans-3-(trifluoromethyl)cyclobutoxy]-3-pyridyl]-methyl]-N-methyl-pyrrolidine-2-carboxamide Hydrochloride]",> 7.70,50 to 70
"COc1nc(O[C@H]2C[C@@H](C(F)(F)F)C2)c(F)cc1CN(C)C(=O)[C@@H]1CCCN1 [Example 121, (2S)—N-[[5-Fluoro-2-methoxy-6-[cis-3-(trifluoromethyl)cyclobutoxy]-3-pyridyl]methyl]-N-methyl-pyrrolidine-2-carboxamide Hydrochloride]",> 7.70,50 to 70
"COc1nc(OCc2cc(F)cc(F)c2)c(F)cc1CN(C)C(=O)[C@@H]1CCCN1 [Example 122, (2S)—N-[[6-[(3,5-Difluorophenyl)methoxy]-5-fluoro-2-methoxy-3-pyridyl]methyl]-N-methyl-pyrrolidine-2-carboxamide Hydrochloride]",> 7.70,> 70
"COc1nc(OC2CCC(F)(F)C2)c(F)cc1CN(C)C(=O)[C@@H]1CCCN1 (stereo partly drawn) [Example 123, (2S)—N-[[6-(3,3-Difluorocyclopentoxy)-5-fluoro-2-methoxy-3-pyridyl]methyl]-N-methyl-pyrrolidine-2-carboxamide Hydrochloride]",> 7.70,50 to 70
"COc1nc(OCc2ccc(F)cc2)c(F)cc1CN(C)C(=O)[C@@H]1CCCN1 [Example 124, (2S)—N-[[5-Fluoro-6-[(4-fluorophenyl)methoxy]-2-methoxy-3-pyridyl]methyl]-N-methyl-pyrrolidine-2-carboxamide Hydrochloride]",6.70 to 7.70,50 to 70
"COc1nc(CC2CCCCC2)c(F)cc1CNC(=O)[C@@H]1CCCN1 [Example 129, (2S)—N-[[6-(Cyclohexylmethyl)-5-fluoro-2-methoxy-3-pyridyl]methyl]pyrrolidine-2-carboxamide]",> 7.70,> 70
"COc1nc(N2CCCC2)c(F)cc1CNC(=O)[C@@H]1CCCN1 [Example 135, (2S)—N-[(5-Fluoro-2-methoxy-6-pyrrolidin-1-yl-3-pyridyl)methyl]pyrrolidine-2-carboxamide; 2,2,2-trifluoroacetic Acid]",6.70 to 7.70,> 70
"COc1nc(N2C[C@@H]3CC(F)(F)C[C@@H]3C2)c(F)cc1CNC(=O)[C@@H]1CCCN1 [Example 181, (2S)—N-[[6-[(3aR,6aS)-5,5-Difluoro-1,3,3a,4,6,6a-hexahydrocyclopenta[c]pyrrol-2-yl]-5-fluoro-2-methoxy-3-pyridyl]methyl]pyrrolidine-2-carboxamide; 2,2,2-trifluoroacetic Acid]",> 7.70,
"COc1nc(C(F)(F)C(Cl)c2ccccc2)c(F)cc1CN(C)C(=O)C1CCCN1 (stereo not drawn) [Example 192, N-[[6-(2-Chloro-1,1-difluoro-2-phenyl-ethyl)-5-fluoro-2-methoxy-3-pyridyl]-methyl]-N-methyl-pyrrolidine-2-carboxamide Dihydrochloride]",6.00 to 6.70,50 to 70

# Reference: patent US20190062305A1, “PYRIDYL OR PYRAZINYL COMPOUNDS CARRYING A METHYL-BOUND ALPHA-AMINO ACID AMIDE GROUP” (ABBVIE DEUTSCHLAND GMBH & CO. KG, priority 2015, published 2019)
